Data from article PMC3258025 (Molecular Cancer Therapeutics, 2010).

Tests used:
[1] = system: lung cancer cell lines (A549, H460, H838, and H1703); experiment: MTT cytotoxicity, summary over the four lung cancer cell lines; assay type: cell-based, human; conditions: cimetidine 3 mmol/L, 4-hour exposure
[2] = system: HEK293 cells; experiment: MTT cytotoxicity of the OCT inhibitors themselves; assay type: cell-based, human; conditions: same experimental conditions as picoplatin MTT assay; data not shown
[3] = target: T1, OCT3 (Homo sapiens, UniProt O75751); conditions: corticosterone 10 μmol/L, P < 0.001
T1 sequence (O75751 1-556): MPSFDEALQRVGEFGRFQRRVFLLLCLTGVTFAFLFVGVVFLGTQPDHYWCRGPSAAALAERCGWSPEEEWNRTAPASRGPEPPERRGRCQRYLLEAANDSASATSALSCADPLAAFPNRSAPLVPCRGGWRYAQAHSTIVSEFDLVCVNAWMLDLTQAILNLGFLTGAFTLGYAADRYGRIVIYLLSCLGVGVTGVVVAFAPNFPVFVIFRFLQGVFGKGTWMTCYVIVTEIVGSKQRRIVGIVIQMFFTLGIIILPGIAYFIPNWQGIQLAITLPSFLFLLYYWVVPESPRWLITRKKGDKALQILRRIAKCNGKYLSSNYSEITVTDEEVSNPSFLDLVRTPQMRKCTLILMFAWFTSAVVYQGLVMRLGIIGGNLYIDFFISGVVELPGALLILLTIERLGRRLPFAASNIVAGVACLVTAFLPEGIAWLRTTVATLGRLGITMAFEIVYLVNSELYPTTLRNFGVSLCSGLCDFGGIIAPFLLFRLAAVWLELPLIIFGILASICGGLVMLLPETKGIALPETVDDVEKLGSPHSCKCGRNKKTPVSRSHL

[4] = system: HEK-hOCT1 cells; experiment: MTT cytotoxicity assay in OCT1-transfected HEK293 cells; assay type: cell-based, human; conditions: disopyramide 150 μmol/L
[5] = target: T2, OCT1 (Homo sapiens, UniProt O15245); experiment: Platinum-DNA adduct formation in HEK-hOCT1 cells; assay type: cell-based; conditions: disopyramide 150 μmol/L, P < 0.001
T2 sequence (O15245 1-554): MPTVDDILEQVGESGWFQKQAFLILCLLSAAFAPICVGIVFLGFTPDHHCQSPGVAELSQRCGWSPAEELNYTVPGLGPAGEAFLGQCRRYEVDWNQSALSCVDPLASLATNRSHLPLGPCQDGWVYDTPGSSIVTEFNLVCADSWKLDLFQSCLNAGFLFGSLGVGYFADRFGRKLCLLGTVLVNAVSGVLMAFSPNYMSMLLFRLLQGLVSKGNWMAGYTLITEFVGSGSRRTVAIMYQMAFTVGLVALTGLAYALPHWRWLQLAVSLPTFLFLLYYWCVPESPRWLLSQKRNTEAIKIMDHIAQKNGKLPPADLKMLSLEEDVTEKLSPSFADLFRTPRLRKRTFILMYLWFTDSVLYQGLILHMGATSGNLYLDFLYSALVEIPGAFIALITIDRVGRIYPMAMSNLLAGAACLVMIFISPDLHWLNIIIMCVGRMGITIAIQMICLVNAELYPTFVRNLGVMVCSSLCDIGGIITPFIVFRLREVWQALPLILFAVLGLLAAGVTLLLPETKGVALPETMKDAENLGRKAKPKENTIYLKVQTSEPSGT

[6] = target: T2, OCT1; conditions: 10 μmol/L, 30 minutes; picoplatin in PB-Cl, monoaqua and diaqua complexes in PB-SO4

Row | SMILES | Change in IC50 values in the presence of cimetidine [1] | Concentration up to which the inhibitor itself did not exhibit any cytotoxicity [2] | other results
1 | N.N.O=C([O-])C1(C(=O)[O-])CCC1.[Pt+2] [Carboplatin] | no significant change in the IC50 values | – | –
2 | N.N.[Cl][Pt][Cl] [Cisplatin] | no significant change in the IC50 values | – | –
3 | CN/C(=N/CCSCc1nc[nH]c1C)NC#N [cimetidine] | – | > 5000 µM | –
4 | C[C@]12C[C@H](O)[C@H]3[C@@H](CCC4=CC(=O)CC[C@@]43C)[C@@H]1CC[C@@H]2C(=O)CO [corticosterone] | – | – | Effect of OCT3 inhibitor on picoplatin-DNA adduct level in HEK-hOCT3 cells [3]: completely inhibited
5 | CC(C)N(CCC(C(N)=O)(c1ccccc1)c1ccccn1)C(C)C (centres unmarked) [disopyramide] | – | > 400 µM | Increase of picoplatin IC50 by coincubation of OCT1 inhibitor [4]: 5.9 fold; Effect of OCT1 inhibitor on platinum-DNA adduct formation in HEK-hOCT1 cells [5]: inhibitable
6 | Cc1cccc[n+]1[Pt-2]([NH3+])([OH2+])[Cl] (centres unmarked) [monoaqua complex of picoplatin, [Pt(NH3)(2-Pic)(H2O)(Cl)]+] | – | – | Preference of platinum uptake in OCT1-expressing cells over the corresponding EV cells [6]: equal additional preference in OCT1-expressing cells
